Source: ChEMBL document CHEMBL1201862, “PubChem BioAssay data set” (2004)
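Growth conditions: 96-well plates. Treatment: test compound, 48 hours, 5 concentrations. Analysis: linear interpolation between bracketing concentrations; unreached endpoints set to highest concentration. The concentration for 50% growth inhibition is given as GI50.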 Active and inactive are the calls of the source. No stated cut-off is given here; in the data, active = GI50 up to about 1.1 µM and inactive = higher.

Assays:
Assay in all cases: DTP human tumour cell line panel, 48 h
[1] = test system: Malme-3M
[2] = test system: NCI/ADR-RES
[3] = test system: NCI-H460
[4] = test system: M14
[5] = test system: LOX IMVI
[6] = test system: U-251
[7] = test system: UACC-257
[8] = test system: DU-145
[9] = test system: NCI-H23
[10] = test system: PC-3
[11] = test system: OVCAR-3
[12] = test system: HCC 2998
[13] = test system: COLO 205
[14] = test system: 786-0
[15] = test system: UACC-62
[16] = test system: SK-OV-3
[17] = test system: CAKI-1
[18] = test system: SF-295
[19] = test system: MDA-MB-435
[20] = test system: CCRF-CEM
[21] = test system: HT-29
[22] = test system: RPMI-8226
[23] = test system: MDA-N
[24] = test system: MCF7
[25] = test system: SK-MEL-5
[26] = test system: K562
[27] = test system: IGROV-1
[28] = test system: HOP-62
[29] = test system: HL-60
[30] = test system: T47D
[31] = test system: A498
[32] = test system: OVCAR-8
[33] = test system: OVCAR-5
[34] = test system: ACHN
[35] = test system: MDA-MB-231
[36] = test system: RXF 393
[37] = test system: A549
[38] = test system: EKVX
[39] = test system: HCT-15
[40] = test system: OVCAR-4
[41] = test system: SK-MEL-28
[42] = test system: HOP-92
[43] = test system: MOLT-4
[44] = test system: SNB-19
[45] = test system: KM12
[46] = test system: SN12C
[47] = test system: HCT-116
[48] = test system: SR
[49] = test system: NCI-H226
[50] = test system: SF-268
[51] = test system: SW-620
[52] = test system: TK-10
[53] = test system: UO-31
[54] = test system: SF-539
[55] = test system: NCI-H522
[56] = test system: SNB-75
[57] = test system: SK-MEL-2
[58] = test system: Hs-578T

In the case of `CCCCOC(=O)NC(Nc1ccc(S(=O)(=O)Nc2ccc(OC)nn2)cc1)(C(F)(F)F)C(F)(F)F`, the GI50 [1] is reported as > 100 µM (inactive), the GI50 [2] is reported as > 100 µM (inactive) and the GI50 [3] is reported as > 100 µM (inactive). For the same molecule, the GI50 [4] was > 100 µM (inactive), the GI50 [5] was > 100 µM (inactive) and the GI50 [6] was > 100 µM (inactive). For the same molecule, the GI50 [7] was > 100 µM (inactive), the GI50 [8] was > 100 µM (inactive) and the GI50 [9] was > 100 µM (inactive). The GI50 [10] was > 100 µM (inactive), the GI50 [11] was > 100 µM (inactive) and the GI50 [12] was > 100 µM (inactive). The GI50 [13] was > 100 µM (inactive), the GI50 [14] was > 100 µM (inactive) and the GI50 [15] was > 100 µM (inactive). For the same molecule, the GI50 [16] was > 100 µM (inactive), the GI50 [17] was > 100 µM (inactive) and the GI50 [18] was > 100 µM (inactive). For the same molecule, the GI50 [19] was > 100 µM (inactive), the GI50 [20] was > 100 µM (inactive) and the GI50 [21] was > 100 µM (inactive). The GI50 [22] was > 100 µM (inactive), the GI50 [23] was > 100 µM (inactive) and the GI50 [24] was > 100 µM (inactive). For the same molecule, the GI50 [25] was > 100 µM (inactive), the GI50 [26] was > 100 µM (inactive) and the GI50 [27] was > 100 µM (inactive). For the same molecule, the GI50 [28] was > 100 µM (inactive), the GI50 [29] was > 100 µM (inactive) and the GI50 [30] was > 100 µM (inactive). The GI50 [31] was > 100 µM (inactive), the GI50 [32] was > 100 µM (inactive) and the GI50 [33] was > 100 µM (inactive). The GI50 [34] was > 100 µM (inactive), the GI50 [35] was > 100 µM (inactive) and the GI50 [36] was > 100 µM (inactive). The GI50 [37] was > 100 µM (inactive), the GI50 [38] was > 100 µM (inactive) and the GI50 [39] was > 100 µM. The GI50 [40] was > 100 µM (inactive), the GI50 [41] was > 100 µM (inactive) and the GI50 [42] was 78.2 µM (inactive). The GI50 [43] was > 100 µM (inactive), the GI50 [44] was > 100 µM (inactive) and the GI50 [45] was > 100 µM (inactive). The GI50 [46] was > 100 µM (inactive), the GI50 [47] was > 100 µM (inactive) and the GI50 [48] was > 100 µM (inactive). For the same molecule, the GI50 [49] was > 100 µM (inactive), the GI50 [50] was > 100 µM (inactive) and the GI50 [51] was > 100 µM (inactive). For the same molecule, the GI50 [52] was > 100 µM (inactive), the GI50 [53] was > 100 µM (inactive) and the GI50 [54] was > 100 µM (inactive).
`COC(C)(C)C1(O)CC[C@@H](C)CC1=O` (some centres not stated) was tested, and the GI50 [1] was > 100 µM (inactive), the GI50 [4] was > 100 µM (inactive) and the GI50 [7] was > 100 µM (inactive). The GI50 [8] was > 100 µM (inactive), the GI50 [9] was > 100 µM (inactive) and the GI50 [15] was > 100 µM (inactive). For the same molecule, the GI50 [18] was > 100 µM (inactive), the GI50 [19] was > 100 µM (inactive) and the GI50 [22] was > 100 µM (inactive). The GI50 [24] was > 100 µM (inactive), the GI50 [28] was > 100 µM (inactive) and the GI50 [31] was > 100 µM (inactive). The GI50 [55] was > 100 µM (inactive), the GI50 [33] was > 100 µM (inactive) and the GI50 [34] was > 100 µM (inactive). For the same molecule, the GI50 [37] was > 100 µM (inactive), the GI50 [38] was > 100 µM (inactive) and the GI50 [39] was > 100 µM. The GI50 [40] was > 100 µM (inactive), the GI50 [41] was > 100 µM (inactive) and the GI50 [45] was > 100 µM (inactive). For the same molecule, the GI50 [46] was > 100 µM (inactive), the GI50 [47] was > 100 µM (inactive) and the GI50 [56] was > 100 µM (inactive). The GI50 [50] was > 100 µM (inactive), the GI50 [51] was > 100 µM (inactive) and the GI50 [52] was > 100 µM (inactive). For the same molecule, the GI50 [54] was > 100 µM (inactive).
In the case of `O=[N+]([O-])c1ccc2nc(Nc3ccccc3)c(Nc3ccccc3)nc2c1`, the GI50 [1] is reported as 1.84 µM (inactive), the GI50 [2] is reported as 1.46 µM (inactive) and the GI50 [3] is reported as 0.42 µM (active). For the same molecule, the GI50 [5] was 1.58 µM (inactive), the GI50 [6] was 0.512 µM (active) and the GI50 [7] was 2.15 µM (inactive). For the same molecule, the GI50 [8] was 1.77 µM (inactive), the GI50 [9] was 1.17 µM (inactive) and the GI50 [10] was 0.847 µM (active). For the same molecule, the GI50 [12] was 1.25 µM (inactive), the GI50 [13] was 1.62 µM (inactive) and the GI50 [14] was 1.49 µM (inactive). For the same molecule, the GI50 [15] was 1.02 µM (active), the GI50 [16] was 0.787 µM (active) and the GI50 [17] was 0.802 µM (active). For the same molecule, the GI50 [18] was 1.14 µM (inactive), the GI50 [19] was 1.66 µM (inactive) and the GI50 [20] was 0.875 µM (active). For the same molecule, the GI50 [21] was 0.463 µM (active), the GI50 [57] was 2.15 µM (inactive) and the GI50 [22] was 2.61 µM (inactive). The GI50 [23] was 0.553 µM (active), the GI50 [25] was 1.49 µM (inactive) and the GI50 [26] was 2.04 µM (inactive). The GI50 [27] was 1.58 µM (inactive), the GI50 [28] was 1.19 µM (inactive) and the GI50 [29] was 9.31 µM (inactive). The GI50 [30] was 2.63 µM (inactive), the GI50 [31] was 0.929 µM (active) and the GI50 [55] was 0.369 µM (active). The GI50 [32] was 1.03 µM (active), the GI50 [33] was 2.64 µM (inactive) and the GI50 [34] was 0.681 µM (active). The GI50 [35] was 1.36 µM (inactive), the GI50 [36] was 2.57 µM (inactive) and the GI50 [37] was 0.349 µM (active). For the same molecule, the GI50 [58] was 2.65 µM (inactive), the GI50 [38] was 1.82 µM (inactive) and the GI50 [39] was 0.753 µM. For the same molecule, the GI50 [40] was 2.87 µM (inactive), the GI50 [41] was 2.45 µM (inactive) and the GI50 [42] was 1.63 µM (inactive). The GI50 [43] was 1.55 µM (inactive), the GI50 [44] was 1.15 µM (inactive) and the GI50 [45] was 1.3 µM (inactive). The GI50 [46] was 1.18 µM (inactive), the GI50 [47] was 0.555 µM (active) and the GI50 [56] was 2 µM (inactive). The GI50 [48] was 0.489 µM (active), the GI50 [49] was 2.4 µM (inactive) and the GI50 [50] was 1.62 µM (inactive). For the same molecule, the GI50 [51] was 1.56 µM (inactive), the GI50 [52] was 2.83 µM (inactive) and the GI50 [53] was 1.21 µM (inactive). For the same molecule, the GI50 [54] was 1.58 µM (inactive).
